Patent publication US20120239140A1, “MEDICAL PRODUCT COMPRISING AN ACTIVE COATING” (priority 2011, published 2012)
“Also recorded” adds a separate entry of the source.

Columns and labels:
[1] = cited from earlier work
[2] = cited from earlier work; remark: listed apart in the source
[3] = test system: pathologically altered human aortas; assay: Ex vivo test on the aorta model (stent implanted in the explant, 2 weeks culture, PCR); type: cell-based
Excerpt: The ex vivo test on pathologically altered human arteries and, in particular, on human aortas is a novel test model that makes it possible to better predict the clinical efficacy of biologically active coatings of medical implants such as stents or balloon catheters. Until now, it was not possible to perform this prediction in a reliable manner. […] These failures have engendered doubt in the benefit of the standard animal models, since, despite additional serial examinations and comprehensive screenings, the clinical efficacy of a new substance is uncertain even though preclinical results were positive. Until now there was no test model available that investigated the antiproliferative effect of new drugs in the complex biological environment of an arteriosclerotic vessel. On the basis of this novel test model, it is now possible to obtain mechanistic insights into the origin of a restenosis after stent implantation and to develop a therapy specific for the cause thereof
The special test procedure is based on the use of human pathological vascular tissue obtained directly within one hour after operation (vasectomy). Immediately after removal, the vascular preparations are placed in a sterile phosphate buffer (PBS) at room temperature, and are transported. […]

Compound | efficacy in the experimental animal model [1] | antirestenotic effect / reduction of restenosis in clinical practice [2] | proliferation of smooth muscle cells (proliferation markers KI-67 and PCNA) ([3]; Pyr3 eluted from polymeric stent coating (embodiment 1) compared with uncoated 316L stent, after stent implantation with overexpansion, FIGS. 2 and 3) | total number of smooth muscle cells (expression of hSMTN and hAlpha-actin) ([3]; stent with Pyr3 (embodiment 1) compared with uncoated 316L stent, after stent implantation, FIG. 2)
CC(=O)Oc1ccccc1C(=O)O [aspirin] | good efficacy | did not reduce restenosis | – | –
CC[C@@H]1/C=C(\C)C[C@H](C)C[C@H](OC)[C@H]2O[C@@](O)(C(=O)C(=O)N3CCCC[C@H]3C(=O)O[C@H](/C(C)=C/[C@@H]3CC[C@H](Cl)[C@H](OC)C3)[C@H](C)[C@@H](O)CC1=O)[C@H](C)C[C@@H]2OC [pimecrolimus] | good efficacy | did not reduce restenosis | – | –
CCOC(=O)c1cnn(-c2ccc(NC(=O)C(Cl)=C(Cl)Cl)cc2)c1C(F)(F)F [Pyr3, ethyl-1-(4-(2,3,3-trichloroacrylamide)phenyl)-5-(trifluoromethyl)-1H-pyrazole-4-carboxylate] | – | – | can be inhibited; also recorded: lower overall proliferation | does not lead to the otherwise common drop in total number of smooth muscle cells
heparin | good efficacy | did not reduce restenosis | – | –
